Test results reported in patent US20140155376A1, “PYRROLOPYRAZINE KINASE INHIBITORS” (Hoffmann-La Roche Inc., priority 2010, published 2014).

Biological target: T1, JAK3 (recombinant human kinase domain; h-jak3(810-1124)) (Homo sapiens, UniProt P52333)
T1 construct: h-jak3(810- 1124)-sf9-c; made in house; host or cells: Sf9 insect cells
Assay: Determination of IC50 of Janus Kinase (JAK) inhibition: JAK3, radioactive end-point assay with 33P-ATP
Assay type: biochemical
Details: JAK3 kinase domain; ATP 1.5 uM, peptide 50 uM, 20 minutes, room temperature, 10% DMSO; read-out: Ic50 h-jak3(810-1124)-sf9-c:no additive

T1 sequence (P52333 810-1124): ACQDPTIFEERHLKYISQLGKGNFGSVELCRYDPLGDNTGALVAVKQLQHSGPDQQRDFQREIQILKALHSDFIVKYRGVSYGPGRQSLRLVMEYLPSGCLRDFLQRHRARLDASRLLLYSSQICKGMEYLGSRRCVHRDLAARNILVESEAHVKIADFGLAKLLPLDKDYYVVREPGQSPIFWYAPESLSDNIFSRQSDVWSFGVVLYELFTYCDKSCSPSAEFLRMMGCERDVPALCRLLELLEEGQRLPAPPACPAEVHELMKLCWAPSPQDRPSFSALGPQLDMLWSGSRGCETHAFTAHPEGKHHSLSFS

Row | Compound | IC50
1 | CC(NC(=O)c1ccc(-c2cnc3[nH]cc(C(=O)N[C@@H](C)C(C)(C)C)c3n2)s1)c1cccnc1 (stereo partly drawn) [Example I-171, 2-[5-(1-Pyridin-3-yl-ethylcarbamoyl)-thiophen-2-yl]-5H-pyrrolo[2,3-b]pyrazine-7-carboxylic acid ((S)-1,2,2-trimethyl-propyl)-amide] | 0.00023 µM
2 | C[C@H](NC(=O)c1c[nH]c2ncc(-c3cnn(C)c3)nc12)C1CCCCC1 [Example I-140, 2-(1-Methyl-1H-pyrazol-4-yl)-5H-pyrrolo[2,3-b]pyrazine-7-carboxylic acid ((S)-1-cyclohexyl-ethyl)-amide] | 0.00088 µM
3 | CC1CCCCC1NC(=O)c1ccc(-c2cnc3[nH]cc(C(=O)N[C@@H](C)C(C)(C)C)c3n2)s1 (stereo partly drawn) [Example I-190, 2-[5-(2-Methyl-cyclohexyl-carbamoyl)-thiophen-2-yl]-5H-pyrrolo[2,3-b]pyrazine-7-carboxylic acid ((S)-1,2,2-trimethyl-propyl)-amide] | 0.00069 µM
4 | CC(C)(O)C(C)(C)NC(=O)c1c[nH]c2ncc(C3CC3)nc12 [Example I-79, 2-Cyclopropyl-5H-pyrrolo[2,3-b]pyrazine-7-carboxylic acid (2-hydroxy-1,1,2-trimethyl-propyl)-amide] | 0.0407 µM
5 | C[C@H](NC(=O)c1c[nH]c2ncc(-c3ccc(C(=O)NC45CC6CC(CC(C6)C4)C5)s3)nc12)C(C)(C)C [Example I-194, 2-[5-(Adamantan-1-ylcarbamoyl)-thiophen-2-yl]-5H-pyrrolo[2,3-b]pyrazine-7-carboxylic acid ((S)-1,2,2-trimethyl-propyl)-amide] | 0.00134 µM
6 | N#CC[C@@H](NC(=O)c1c[nH]c2ncc(C3CC3)nc12)C1CC1 [Example I-135, 2-Cyclopropyl-5H-pyrrolo[2,3-b]pyrazine-7-carboxylic acid ((R)-2-cyano-1-cyclopropyl-ethyl)-amide] | 0.0206 µM
7 | C[C@H](NC(=O)c1c[nH]c2ncc(-c3ccc(C(=O)NC4CCOCC4)s3)nc12)C(C)(C)C#N [Example I-223, 2-[5-(Tetrahydro-pyran-4-ylcarbamoyl)-thiophen-2-yl]-5H-pyrrolo[2,3-b]pyrazine-7-carboxylic acid ((S)-2-cyano-1,2,2-trimethyl-ethyl)-amide] | 0.00091 µM
8 | O=C(NC(C1CC1)C1CC1)c1c[nH]c2ncc(C3CC3)nc12 [Example I-80, 2-Cyclopropyl-5H-pyrrolo[2,3-b]pyrazine-7-carboxylic acid dicyclopropyl-methyl-amide] | 0.0039 µM
9 | CC(CN(C)C)NC(=O)c1c[nH]c2ncc(C3CC3)nc12 (stereo not drawn) [Example I-27, 2-Cyclopropyl-5H-pyrrolo[2,3-b]pyrazine-7-carboxylic acid (2-dimethylamino-1-methyl-ethyl)-amide] | 0.934 µM
10 | CCNC(=O)c1c[nH]c2ncc(Oc3cccc(C)c3)nc12 [Example I-248, 2-m-Tolyloxy-5H-pyrrolo[2,3-b]pyrazine-7-carboxylic acid ethylamide] | 1.03 µM
11 | CNC(=O)CNc1cnc2[nH]cc(C(=O)NCC(C)(C)CO)c2n1 [Example I-16] | 0.459 µM
12 | C[C@@H](NC(=O)c1c[nH]c2ncc(C3CC3)nc12)C(C)(C)C [Example I-62, 2-Cyclopropyl-5H-pyrrolo[2,3-b]pyrazine-7-carboxylic acid ((R)-1,2,2-trimethyl-propyl)-amide] | 0.00746 µM
13 | CC(C)NC(=O)c1c[nH]c2ncc(Oc3ccc4c(c3)[C@H](O)CC4)nc12 [Example I-303, 2-((R)-3-Hydroxy-indan-5-yloxy)-5H-pyrrolo[2,3-b]pyrazine-7-carboxylic acid isopropylamide] | 0.14 µM
14 | CC(C)NC(=O)c1c[nH]c2ncc(Oc3cccc4ccccc34)nc12 [Example I-241, 2-(Naphthalen-1-yloxy)-5H-pyrrolo[2,3-b]pyrazine-7-carboxylic acid isopropylamide] | 0.677 µM
15 | C[C@H](NC(=O)c1c[nH]c2ncc(-c3ccc(C(=O)NCc4c(F)cccc4F)s3)nc12)C(C)(C)C [Example I-188, 2-[5-(2,6-Difluoro-benzylcarbamoyl)-thiophen-2-yl]-5H-pyrrolo[2,3-b]pyrazine-7-carboxylic acid ((S)-1,2,2-trimethyl-propyl)-amide] | 0.00041 µM
16 | C[C@H](NC(=O)c1c[nH]c2ncc(C3CC3)nc12)[C@@](C)(O)CC1CC1 [Example I-38, 2-Cyclopropyl-5H-pyrrolo[2,3-b]pyrazine-7-carboxylic acid ((1S,2S)-3-cyclopropyl-2-hydroxy-1,2-dimethyl-propyl)-amide] | 0.115 µM
17 | N#CCCCNC(=O)c1c[nH]c2ncc(C3CC3)nc12 [Example I-33, 2-Cyclopropyl-5H-pyrrolo[2,3-b]pyrazine-7-carboxylic acid (3-cyano-propyl)-amide] | 0.493 µM
18 | CC(C)[C@H](NC(=O)c1c[nH]c2ncc(C3CC3)nc12)C(C)(C)O [Example I-24, 2-Cyclopropyl-5H-pyrrolo[2,3-b]pyrazine-7-carboxylic acid ((S)-2-hydroxy-1-isopropyl-2-methyl-propyl)-amide] | 0.18 µM

Row | Compound | IC50
19 | CC[C@](C)(O)[C@H](C)NC(=O)c1c[nH]c2ncc(C3CC3)nc12 [Example I-31, 2-Cyclopropyl-5H-pyrrolo[2,3-b]pyrazine-7-carboxylic acid ((1S,2S)-2-hydroxy-1,2-dimethyl-butyl)-amide] | 0.0395 µM
20 | CC[C@H](C)NC(=O)c1c[nH]c2ncc(Oc3ccc4c(c3)[C@H](NC(C)=O)CC4)nc12 [Example I-296, 2-((R)-3-Acetylamino-indan-5-yloxy)-5H-pyrrolo[2,3-b]pyrazine-7-carboxylic acid ((S)-sec-butyl)-amide] | 0.0229 µM
21 | C[C@H](NC(=O)c1c[nH]c2ncc(-c3ccc(C(=O)NCC#N)s3)nc12)C(C)(C)C [Example I-172, 2-[5-(Cyanomethyl-carbamoyl)-thiophen-2-yl]-5H-pyrrolo[2,3-b]pyrazine-7-carboxylic acid ((S)-1,2,2-trimethyl-propyl)-amide] | 0.00014 µM
22 | CCN(CC)C(=O)c1ccc(-c2cnc3[nH]cc(C(=O)N[C@@H](C)C(C)(C)C)c3n2)s1 [Example I-160, 2-(5-Diethylcarbamoyl-thiophen-2-yl)-5H-pyrrolo[2,3-b]pyrazine-7-carboxylic acid ((S)-1,2,2-trimethyl-propyl)-amide] | 0.00032 µM
23 | O=C(N[C@H](C1CC1)C1(O)CCCC1)c1c[nH]c2ncc(C3CC3)nc12 [Example I-104, 2-Cyclopropyl-5H-pyrrolo[2,3-b]pyrazine-7-carboxylic acid [(R)-cyclopropyl-(1-hydroxy-cyclopentyl)-methyl]-amide] | 0.0163 µM
24 | C[C@H](NC(=O)c1c[nH]c2ncc(C3CC3)nc12)[C@@](C)(O)C(F)(F)F [Example I-53, 2-Cyclopropyl-5H-pyrrolo[2,3-b]pyrazine-7-carboxylic acid ((1S,2R)-3,3,3-trifluoro-2-hydroxy-1,2-dimethyl-propyl)-amide] | 0.00838 µM
25 | CC[C@@H](NC(=O)c1c[nH]c2ncc(C3CC3)nc12)C(C)(C)O [Example I-44, 2-Cyclopropyl-5H-pyrrolo[2,3-b]pyrazine-7-carboxylic acid ((R)-1-ethyl-2-hydroxy-2-methyl-propyl)-amide] | 0.046 µM
26 | CCn1cc(-c2cnc3[nH]cc(C(=O)N[C@@H](C)C4(O)CCCC4)c3n2)cn1 [Example I-138, 2-(1-Ethyl-1H-pyrazol-4-yl)-5H-pyrrolo[2,3-b]pyrazine-7-carboxylic acid [(S)-1-(1-hydroxy-cyclopentyl)-ethyl]-amide] | 0.00501 µM
27 | CC(C)NC(=O)c1c[nH]c2ncc(Oc3ccc4c(c3)[C@H](N)CC4)nc12 [Example I-281, 2-((R)-3-Amino-indan-5-yloxy)-5H-pyrrolo[2,3-b]pyrazine-7-carboxylic acid isopropylamide] | 0.138 µM
28 | C[C@H](NC(=O)c1c[nH]c2ncc(-c3ccc(C(=O)N[C@H]4C[C@@H]4c4ccccc4)s3)nc12)C(C)(C)C [Example I-191, 2-[5-((1S,2R)-2-Phenyl-cyclopropyl-carbamoyl)-thiophen-2-yl]-5H-pyrrolo[2,3-b]pyrazine-7-carboxylic acid ((S)-1,2,2-trimethyl-propyl)-amide] | 0.00055 µM
29 | O=C(NC(CO)CO)c1c[nH]c2ncc(C3CC3)nc12 [Example I-51, 2-Cyclopropyl-5H-pyrrolo[2,3-b]pyrazine-7-carboxylic acid (2-hydroxy-1-hydroxymethyl-ethyl)-amide] | 0.414 µM
30 | CC(C)NC(=O)c1c[nH]c2ncc(Oc3ccccc3Cl)nc12 [Example I-255, 2-(2-Chloro-phenoxy)-5H-pyrrolo[2,3-b]pyrazine-7-carboxylic acid isopropylamide] | 0.382 µM
31 | C=Cc1cnc2[nH]cc(C(=O)NCC(C)(C)CO)c2n1 [Example I-36, 2-Vinyl-5H-pyrrolo[2,3-b]pyrazine-7-carboxylic acid (3-hydroxy-2,2-dimethyl-propyl)-amide] | 0.0336 µM
32 | C[C@H](NC(=O)c1c[nH]c2ncc(C3=CCCC3)nc12)C(C)(C)O [Example I-2, 2-Cyclopent-1-enyl-5H-pyrrolo[2,3-b]pyrazine-7-carboxylic acid ((S)-2-hydroxy-1,2-dimethyl-propyl)-amide] | 0.00523 µM
33 | CC(C)(CNC(=O)c1c[nH]c2ncc(C3CC3)nc12)CS(C)(=O)=O [Example I-98, 2-Cyclopropyl-5H-pyrrolo[2,3-b]pyrazine-7-carboxylic acid (3-methanesulfonyl-2,2-dimethyl-propyl)-amide] | 0.0111 µM
34 | C[C@H](NC(=O)c1c[nH]c2ncc(Oc3ccccc3)nc12)C1CCCCC1 [Example I-123, 2-Phenoxy-5H-pyrrolo[2,3-b]pyrazine-7-carboxylic acid ((S)-1-cyclohexyl-ethyl)-amide] | 1.33 µM
35 | Cc1cc(C)nc(Oc2cnc3[nH]cc(C(=O)NC(C)C)c3n2)c1 [Example I-279, 2-(4,6-Dimethyl-pyridin-2-yloxy)-5H-pyrrolo[2,3-b]pyrazine-7-carboxylic acid isopropylamide] | 1.11 µM
36 | CC(C)(CO)CNC(=O)c1c[nH]c2ncc(Nc3ccccc3)nc12 [Example I-15, 2-Phenylamino-5H-pyrrolo[2,3-b]pyrazine-7-carboxylic acid (3-hydroxy-2,2-dimethyl-propyl)-amide] | 0.00749 µM
